Test results: the supplement of paper PMC10307832

Assays:
Experiment in all cases: relative viability (nuclei count vs DMSO), 5 days (fraction); higher = more cells survive
[1] = compound: CNC(=O)c1cc(Oc2ccc(NC(=O)Nc3ccc(Cl)c(C(F)(F)F)c3)cc2)ccn1 [Sorafenib] + NC(=O)Nc1cc(-c2cccc(F)c2)sc1C(=O)N[C@H]1CCCNC1 [AZD7762] (partner 0.2 µM)
Procedure, shortened: (§1)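 Each reported value is a median over duplicate plates. It expresses relative viability: treated-well nuclei count divided by vehicle-well nuclei count. Lung cancer cell lines in 1536-well plates were dosed by pin tool a day after seeding, alone with one drug or with a fixed anchor-drug dose plus five library-drug doses (not always all listed) in √10 steps, and nuclei were counted after 5 days.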

[2] = compound: CNC(=O)c1cc(Oc2ccc(NC(=O)Nc3ccc(Cl)c(C(F)(F)F)c3)cc2)ccn1 [Sorafenib] + C[C@]1(O)C[C@@H](c2nc(-c3ccc4ccc(-c5ccccc5)nc4c3)c3c(N)nccn32)C1 [Linsitinib] (partner 1 µM)
Procedure, shortened: as §1

[3] = compound: CNC(=O)c1cc(Oc2ccc(NC(=O)Nc3ccc(Cl)c(C(F)(F)F)c3)cc2)ccn1 [Sorafenib] + O=C(c1cc(Cc2n[nH]c(=O)c3ccccc23)ccc1F)N1CCN(C(=O)C2CC2)CC1 [Olaparib] (partner 8 µM)
Procedure, shortened: as §1

[4] = compound: CNC(=O)c1cc(Oc2ccc(NC(=O)Nc3ccc(Cl)c(C(F)(F)F)c3)cc2)ccn1 [Sorafenib] + Cc1cc(Nc2cc(N3CCN(C)CC3)nc(Sc3ccc(NC(=O)C4CC4)cc3)n2)n[nH]1 [Tozasertib] (partner 0.1 µM)
Procedure, shortened: as §1

[5] = compound: CNC(=O)c1cc(Oc2ccc(NC(=O)Nc3ccc(Cl)c(C(F)(F)F)c3)cc2)ccn1 [Sorafenib] + COc1cc2c(Oc3ccc(NC(=O)C4(C(=O)Nc5ccc(F)cc5)CC4)cc3F)ccnc2cc1OCCCN1CCOCC1 [Foretinib] (partner 0.25 µM)
Procedure, shortened: as §1

NCI-H3122
relative viability ([1]; first compound 0.08 µM): 0.905 | relative viability ([1]; first compound 0.253 µM): 0.905 | relative viability ([1]; first compound 2.53 µM): 1.08 | relative viability ([1]; first compound 8 µM): 0.965 | relative viability ([2]; first compound 0.08 µM): 1.06 | relative viability ([2]; first compound 0.253 µM): 1.02 | relative viability ([2]; first compound 2.53 µM): 1.01 | relative viability ([2]; first compound 8 µM): 0.828 | relative viability ([3]; first compound 0.08 µM): 0.639 | relative viability ([3]; first compound 0.253 µM): 0.611 | relative viability ([3]; first compound 2.53 µM): 0.6 | relative viability ([3]; first compound 8 µM): 0.53 | relative viability ([4]; first compound 0.08 µM): 0.44 | relative viability ([4]; first compound 0.253 µM): 0.363 | relative viability ([4]; first compound 2.53 µM): 0.363 | relative viability ([4]; first compound 8 µM): 0.301 | relative viability ([5]; first compound 0.08 µM): 0.985 | relative viability ([5]; first compound 0.253 µM): 0.993 | relative viability ([5]; first compound 2.53 µM): 1.01 | relative viability ([5]; first compound 8 µM): 0.618

PC-3 [JPC-3]
relative viability ([1]; first compound 0.08 µM): 0.929 | relative viability ([1]; first compound 0.253 µM): 0.711 | relative viability ([1]; first compound 2.53 µM): 1.07 | relative viability ([1]; first compound 8 µM): 0.948 | relative viability ([2]; first compound 0.08 µM): 0.951 | relative viability ([2]; first compound 0.253 µM): 0.981 | relative viability ([2]; first compound 2.53 µM): 1.01 | relative viability ([2]; first compound 8 µM): 0.949 | relative viability ([3]; first compound 0.08 µM): 1.18 | relative viability ([3]; first compound 0.253 µM): 1.12 | relative viability ([3]; first compound 2.53 µM): 1.18 | relative viability ([3]; first compound 8 µM): 0.944 | relative viability ([4]; first compound 0.08 µM): 0.879 | relative viability ([4]; first compound 0.253 µM): 0.846 | relative viability ([4]; first compound 2.53 µM): 0.881 | relative viability ([4]; first compound 8 µM): 0.823 | relative viability ([5]; first compound 0.08 µM): 1.07 | relative viability ([5]; first compound 0.253 µM): 1.05 | relative viability ([5]; first compound 2.53 µM): 0.985 | relative viability ([5]; first compound 8 µM): 0.882

PC-14
relative viability ([1]; first compound 0.08 µM): 0.365 | relative viability ([1]; first compound 0.253 µM): 0.256 | relative viability ([1]; first compound 2.53 µM): 0.444 | relative viability ([1]; first compound 8 µM): 0.303 | relative viability ([2]; first compound 0.08 µM): 1.03 | relative viability ([2]; first compound 0.253 µM): 0.96 | relative viability ([2]; first compound 2.53 µM): 0.918 | relative viability ([2]; first compound 8 µM): 0.756 | relative viability ([3]; first compound 0.08 µM): 0.323 | relative viability ([3]; first compound 0.253 µM): 0.315 | relative viability ([3]; first compound 2.53 µM): 0.238 | relative viability ([3]; first compound 8 µM): 0.105 | relative viability ([4]; first compound 0.08 µM): 0.588 | relative viability ([4]; first compound 0.253 µM): 0.555 | relative viability ([4]; first compound 2.53 µM): 0.593 | relative viability ([4]; first compound 8 µM): 0.577 | relative viability ([5]; first compound 0.08 µM): 1.02 | relative viability ([5]; first compound 0.253 µM): 0.945 | relative viability ([5]; first compound 2.53 µM): 1.11 | relative viability ([5]; first compound 8 µM): 0.913

RERF-LC-KJ
relative viability ([1]; first compound 0.08 µM): 1.09 | relative viability ([1]; first compound 0.253 µM): 0.781 | relative viability ([1]; first compound 2.53 µM): 0.941 | relative viability ([1]; first compound 8 µM): 0.897 | relative viability ([2]; first compound 0.08 µM): 0.873 | relative viability ([2]; first compound 0.253 µM): 0.872 | relative viability ([2]; first compound 2.53 µM): 0.798 | relative viability ([2]; first compound 8 µM): 0.739 | relative viability ([3]; first compound 0.08 µM): 0.979 | relative viability ([3]; first compound 0.253 µM): 0.784 | relative viability ([3]; first compound 8 µM): 0.297 | relative viability ([4]; first compound 0.08 µM): 0.532 | relative viability ([4]; first compound 0.253 µM): 0.489 | relative viability ([4]; first compound 2.53 µM): 0.41 | relative viability ([4]; first compound 8 µM): 0.221 | relative viability ([5]; first compound 0.08 µM): 0.969 | relative viability ([5]; first compound 0.253 µM): 0.829 | relative viability ([5]; first compound 2.53 µM): 0.882 | relative viability ([5]; first compound 8 µM): 0.849
